The values below come from patent US10696689B2, “Somatostatin modulators and uses thereof” (CRINETICS PHARMACEUTICALS, INC., priority 2018, dated 2020).

One test relates to hSSTR2 vs. hSSTR4. As to the kind of experiment: Selectivity for inhibition of cAMP via hSSTR2 vs. hSSTR4. Type of test: cell-based, human. The source says:
(§1) General overview: All five SSTR subtypes are Gi coupled G-protein coupled receptors (GPCRs) that lead to decreases in intracellular cyclic AMP (cAMP) when activated by an agonist. Therefore, measurement of intracellular cAMP levels can be used to assess whether compounds of the invention are agonists of SSTR subtypes (John Kelly, Troy Stevens, W. Joseph Thompson, and Roland Seifert, Current Protocols in Pharmacology, 2005, 2.2.1-2.2). One example of an intracellular cAMP assay is described below.
(§2) Four days prior to the assay, 5,000 Chinese hamster ovary cells (CHO-K1, ATCC # CCL-61) stably expressing the human somatostatin receptor subtype 2 are plated in each well of a 96-well tissue culture-treated plate in Ham's F12 growth media (ThermoFisher #10-080-CM) supplemented with 10% donor bovine serum (Gemini Bio-Products #100-506), 100 U/mL penicillin; 100 ug/mL streptomycin; 2 mM L-glutamine (Gemini Bio-Products #400-110) and 0.2 mg/mL hygromycin B (GoldBio #31282-04-9). The cells are cultured at 37° C., 5% CO2 and 95% humidity. On the day of the assay, the media is aspirated and the cells are treated with 50 μL of 1.6 μM NKH477 (Sigma # N3290) plus various dilutions of compounds of the invention in assay buffer [1× Hank's Balanced Salt Solution (ThermoFisher # SH3058802), 0.5 mM HEPES pH 7.4, 0.1% bovine serum albumin, 0.2 mM 3-Isobutyl-1-methylxanthine (IBMX, VWR #200002-790)]. The cells are incubated for 20 minutes at 37° C. (the final concentration of the compounds of the invention are typically 0-10,000 nM). The cells are treated with 50 μL of lysis buffer (HRTF cAMP kit, Cisbio). The lysate is transferred to 384-well plates and cAMP detection and visualization antibodies are added and incubated for 1-24 hours at room temperature. The time-resolved fluorescent signal is read with a Tecan M1000Pro multiplate reader. The intracellular cAMP concentrations are calculated by regression to a standard curve and are plotted vs. the concentration of the compounds of the invention and the EC50 of the compounds are calculated using standard methods. All data manipulations are in GraphPad Prism v6.

The target in test [1] is human SST2 receptor (SSTR2) (Homo sapiens (Human), UniProt P30874). In words: cAMP assay: inhibition of cAMP via human SST2 receptor in CHO-K1 cells. Format: cell-based. The settings on record: CHO-K1 cells stably expressing human SSTR2, NKH477 stimulated.
human SST2 receptor (SSTR2), sequence (P30874 whole entry): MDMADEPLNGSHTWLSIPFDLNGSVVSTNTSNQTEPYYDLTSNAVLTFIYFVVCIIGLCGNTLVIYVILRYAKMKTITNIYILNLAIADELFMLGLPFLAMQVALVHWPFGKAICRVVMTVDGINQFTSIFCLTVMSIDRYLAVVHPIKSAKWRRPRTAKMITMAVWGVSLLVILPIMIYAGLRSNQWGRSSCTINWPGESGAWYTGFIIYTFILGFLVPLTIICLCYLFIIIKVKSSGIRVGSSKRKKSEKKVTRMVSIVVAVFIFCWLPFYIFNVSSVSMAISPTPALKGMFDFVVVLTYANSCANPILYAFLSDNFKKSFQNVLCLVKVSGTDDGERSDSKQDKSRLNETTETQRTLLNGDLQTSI
Text: as §1, §2
On the technique in general: Changes in cAMP serve as a functional read-out for many G protein-coupled receptors.

For orientation: EC50 means the concentration giving half of the maximal effect. Turning to `COc1cc(C#N)cc2[nH]c(-c3c(N)ncc(-c4cc(C)cc(F)c4)c3N3CCC(N)CC3)nc12` [Compound 1-1, 2-[2-amino-4-(4-aminopiperidin-1-yl)-5-(3-fluoro-5-methylphenyl)pyridin-3-yl]-4-methoxy-1H-1,3-benzodiazole-6-carbonitrile], the “hSST4/hSST2 (ratio)” value with hSSTR2 vs. hSSTR4 (Table B) is “a (a = above 50,)”. The same compound had an EC50 in test [1] of under 0.1 nM.

Consider `COc1cc(C#N)cc2[nH]c(-c3c(N)ncc(-c4cc(F)cc(Cl)c4)c3N3CCC(N)CC3)nc12` [Compound 1-2, 2-[2-amino-4-(4-aminopiperidin-1-yl)-5-(3-chloro-5-fluorophenyl)pyridin-3-yl]-4-methoxy-1H-1,3-benzodiazole-6-carbonitrile], for which the EC50 in test [1] is 0.1 to 1 nM.

For the compound `COc1cc(C#N)cc2nc(-c3c(N(C)C)ncc(-c4cc(C)cc(F)c4)c3N3CCC(N)CC3)[nH]c12` [Compound 1-3, 2-[4-(4-aminopiperidin-1-yl)-2-(dimethylamino)-5-(3-fluoro-5-methylphenyl)pyridin-3-yl]-4-methoxy-1H-1,3-benzodiazole-6-carbonitrile], in test [1], the EC50 was at least 1 nM.

Consider `COC(=O)c1ncc(-c2cc(C)cc(F)c2)c(N2CCC(N)CC2)c1-c1nc2cc(F)cc(OC)c2[nH]1` [Compound 2-1, methyl 4-(4-aminopiperidin-1-yl)-3-(6-fluoro-4-methoxy-1H-1,3-benzodiazol-2-yl)-5-(3-fluoro-5-methylphenyl)pyridine-2-carboxylate], for which the “hSST4/hSST2 (ratio)” value in the test on hSSTR2 vs. hSSTR4 (Table B) was “d (d = between 1 and 2.5;)”. Moreover, in test [1], the half-maximal effective concentration (EC50) lay within 0.1 to 1 nM.

As to `COc1cc(F)cc2nc(-c3c(C#N)ncc(-c4cc(C)cc(F)c4)c3N3CCC(N)CC3)[nH]c12` [Compound 2-2, 4-(4-aminopiperidin-1-yl)-3-(6-fluoro-4-methoxy-1H-1,3-benzodiazol-2-yl)-5-(3-fluoro-5-methylphenyl)pyridine-2-carbonitrile], in test [1], the half-maximal effective concentration (EC50) fell in the range of 0.1 to 1 nM.

For `COc1cc(F)cc2nc(-c3c(C(N)=O)ncc(-c4cc(C)cc(F)c4)c3N3CCC(N)CC3)[nH]c12` [Compound 2-3, 4-(4-aminopiperidin-1-yl)-3-(6-fluoro-4-methoxy-1H-1,3-benzodiazol-2-yl)-5-(3-fluoro-5-methylphenyl)pyridine-2-carboxamide], the 50% effective concentration (EC50) in test [1] fell in the range of 0.1 to 1 nM.

Take `Cc1cc(F)cc(-c2cnc(N)c(-c3nc4c(F)cc(F)cc4[nH]3)c2N2CC[C@@H]3NCCO[C@H]3C2)c1` [Compound 3-1, 4-[(4αS,8αS)-octahydro-1H-pyrido[3,4-b][1,4]oxazin-6-yl]-3-(4,6-difluoro-1H-1,3-benzodiazol-2-yl)-5-(3-fluoro-5-methylphenyl)pyridin-2-amine]: the EC50 in test [1] was under 0.1 nM.

In turn, `Nc1ncc(-c2cc(F)cc(F)c2)c(N2CCC3OCCNC3C2)c1-c1nc2c(F)cc(F)cc2[nH]1` (centres unmarked) [Compound 3-2, 4-[(4αS,8αS)-octahydro-1H-pyrido[3,4-b][1,4]oxazin-6-yl]-3-(4,6-difluoro-1H-1,3-benzodiazol-2-yl)-5-(3,5-difluorophenyl)pyridin-2-amine] yielded a concentration for a half-maximal effect (EC50) in test [1] of 0.1 to 1 nM.

The compound `CNc1ncc(-c2cc(F)cc(F)c2)c(N2CC[C@@H]3NCCO[C@H]3C2)c1-c1nc2c(F)cc(F)cc2[nH]1` [Compound 3-6, 4-[(4αS,8αS)-octahydro-1H-pyrido[3,4-b][1,4]oxazin-6-yl]-3-(4,6-difluoro-1H-1,3-benzodiazol-2-yl)-5-(3,5-difluorophenyl)-N-methylpyridin-2-amine] returned a half-maximal effective concentration (EC50) in test [1] of 0.1 to 1 nM.

Consider `Nc1ncc(-c2cc(F)cc(Cl)c2)c(N2CC[C@@H]3NCCO[C@H]3C2)c1-c1nc2c(F)cc(F)cc2[nH]1` [Compound 3-7, 4-[(4αS,8αS)-octahydro-1H-pyrido[3,4-b][1,4]oxazin-6-yl]-5-(3-chloro-5-fluorophenyl)-3-(4,6-difluoro-1H-1,3-benzodiazol-2-yl)pyridin-2-amine], for which the half-maximal effective concentration (EC50) in test [1] is under 0.1 nM.

In the case of `COc1cc(F)cc(-c2cnc(N)c(-c3nc4c(F)cc(F)cc4[nH]3)c2N2CCC3OCCNC3C2)c1` (centres unmarked) [Compound 3-8, 4-[(4αS,8αS)-octahydro-1H-pyrido[3,4-b][1,4]oxazin-6-yl]-3-(4,6-difluoro-1H-1,3-benzodiazol-2-yl)-5-(3-fluoro-5-methoxyphenyl)pyridin-2-amine], in test [1], the 50% effective concentration (EC50) was under 0.1 nM.

For the compound `COc1cc(F)cc2[nH]c(-c3c(N)ncc(-c4cccc(F)c4)c3N3CC[C@@H]4NCCO[C@H]4C3)nc12` [Compound 3-9, 4-[(4αS,8αS)-octahydro-1H-pyrido[3,4-b][1,4]oxazin-6-yl]-3-(6-fluoro-4-methoxy-1H-1,3-benzodiazol-2-yl)-5-(3-fluorophenyl)pyridin-2-amine], the “hSST4/hSST2 (ratio)” value in the test on hSSTR2 vs. hSSTR4 (Table C) is “c (c = between 2.5 and 15;)”. The EC50 in test [1] fell in the range of 0.1 to 1 nM.

`CNc1ncc(-c2cccc(F)c2)c(N2CC[C@@H]3NCCO[C@H]3C2)c1-c1nc2c(OC)cc(F)cc2[nH]1` [Compound 3-10, 4-[(4αS,8αS)-octahydro-1H-pyrido[3,4-b][1,4]oxazin-6-yl]-3-(6-fluoro-4-methoxy-1H-1,3-benzodiazol-2-yl)-5-(3-fluorophenyl)-N-methylpyridin-2-amine]: in the test with hSSTR2 vs. hSSTR4 (Table C), the “hSST4/hSST2 (ratio)” value was “a (a = above 50,)”. For the same compound, the EC50 in test [1] lay in the range of 0.1 to 1 nM.

As to `CNc1ncc(-c2cccc(F)c2)c(N2CC[C@@H]3NCCO[C@H]3C2)c1-c1nc2c(OC)cc(C#N)cc2[nH]1` [Compound 3-12, 2-{4-[(4αS,8αS)-octahydro-1H-pyrido[3,4-b][1,4]oxazin-6-yl]-5-(3-fluorophenyl)-2-(methylamino)pyridin-3-yl}-4-methoxy-1H-1,3-benzodiazole-6-carbonitrile], the “hSST4/hSST2 (ratio)” value in the test on hSSTR2 vs. hSSTR4 (Table C) is “a (a = above 50,)”. The half-maximal effective concentration (EC50) in test [1] was at least 1 nM.

On to `CNc1ncc(-c2cc(F)cc(Cl)c2)c(N2CC[C@@H]3NCCO[C@H]3C2)c1-c1nc2c(OC)cc(F)cc2[nH]1` [Compound 3-13, 4-[(4αS,8αS)-octahydro-1H-pyrido[3,4-b][1,4]oxazin-6-yl]-5-(3-chloro-5-fluorophenyl)-3-(6-fluoro-4-methoxy-1H-1,3-benzodiazol-2-yl)-N-methylpyridin-2-amine], for which the “hSST4/hSST2 (ratio)” value in the test on hSSTR2 vs. hSSTR4 (Table C) is “a (a = above 50,)”. In addition, in test [1], the EC50 fell in the range of 0.1 to 1 nM.

Consider `COc1cc(F)cc2[nH]c(-c3c(N)ncc(-c4cc(C)cc(F)c4)c3N3CC[C@@H]4NCCO[C@H]4C3)nc12` [Compound 3-14, 4-[(4αS, 8αS)-octahydro-1H-pyrido[3,4-b][1,4]oxazin-6-yl]-3-(6-fluoro-4-methoxy-1H-1,3-benzodiazol-2-yl)-5-(3-fluoro-5-methylphenyl)pyridin-2-amine], for which the half-maximal effective concentration (EC50) in test [1] was under 0.1 nM.

For the compound `CNc1ncc(-c2cc(C)cc(F)c2)c(N2CCC3OCCNC3C2)c1-c1nc2c(OC)cc(F)cc2[nH]1` (centres unmarked) [Compound 3-15, 4-[(4αS,8αS)-octahydro-1H-pyrido[3,4-b][1,4]oxazin-6-yl]-3-(6-fluoro-4-methoxy-1H-1,3-benzodiazol-2-yl)-5-(3-fluoro-5-methylphenyl)-N-methylpyridin-2-amine], in test [1], the EC50 is under 0.1 nM.

`COc1cc(C#N)cc2[nH]c(-c3c(N)ncc(-c4cc(C)cc(F)c4)c3N3CC[C@@H]4NCCO[C@H]4C3)nc12` [Compound 3-16, 2-{4-[(4αS,8αS)-octahydro-1H-pyrido[3,4-b][1,4]oxazin-6-yl]-2-amino-5-(3-fluoro-5-methylphenyl)pyridin-3-yl}-4-methoxy-1H-1,3-benzodiazole-6-carbonitrile] came in with a concentration giving a half-maximal response (EC50) in test [1] of under 0.1 nM.

As for `COc1cc(F)cc2[nH]c(-c3c(N)ncc(-c4cc(F)cc(Cl)c4)c3N3CC[C@@H]4OCCN[C@H]4C3)nc12` [Compound 3-17, 4-[(4αS,8αS)-octahydro-1H-pyrido[3,4-b][1,4]oxazin-6-yl]-5-(3-chloro-5-fluorophenyl)-3-(6-fluoro-4-methoxy-1H-1,3-benzodiazol-2-yl)pyridin-2-amine], in the test on hSSTR2 vs. hSSTR4 (Table C), the “hSST4/hSST2 (ratio)” value was “c (c = between 2.5 and 15;)”. For the same compound, the EC50 in test [1] was under 0.1 nM.
